From patent US8008299B2, “Urotensin II receptor antagonists” (Janssen Pharmaceutica, N.V., priority 2007, dated 2011)

What was measured:
[1] = target: T1, rat GPR14 (U-II receptor) (Rattus norvegicus, UniProt P49684); assay: Rat UII Calcium Mobilization FLIPR Assay; type: cell-based; details: CHO cells transfected with rat GPR14; antagonist activity after 5 min incubation vs agonist (Ac)-CFWK(2-NaI)C-NH2 at 1 nM
T1 construct: expressed in transfected cells
T1 sequence (P49684 1-386): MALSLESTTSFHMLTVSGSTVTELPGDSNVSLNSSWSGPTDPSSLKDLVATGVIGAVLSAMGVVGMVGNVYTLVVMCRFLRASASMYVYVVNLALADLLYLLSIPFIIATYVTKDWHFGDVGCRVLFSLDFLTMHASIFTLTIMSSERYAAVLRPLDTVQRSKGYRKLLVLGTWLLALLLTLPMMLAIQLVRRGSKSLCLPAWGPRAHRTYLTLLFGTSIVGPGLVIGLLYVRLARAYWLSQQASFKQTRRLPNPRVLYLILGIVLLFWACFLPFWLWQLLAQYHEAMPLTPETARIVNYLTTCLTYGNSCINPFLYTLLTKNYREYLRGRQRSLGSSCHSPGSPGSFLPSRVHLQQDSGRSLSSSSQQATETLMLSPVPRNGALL
Text: To derive these cells, the complete coding sequence of rat U-II (Genbank Accession No. U32673) was amplified by nested PCR from rat heart marathon-Ready cDNA. […] The PCR products were cloned into pcDNA3 (Invitrogen) digested with EcoR I and Xba I. Clones containing rat U-II receptor were verified by complete sequencing of the U-II receptor insert to ensure a lack of PCR-introduced errors. The constructed vector was transfected into CHO cells by using lipofectamine (GIBCO BRL). CHO cells with high expression of rat U-II receptor were selected and established as stable cell lines by using G418. CHO cells were seeded at 25,000 cells per well into 96-well, black-wall, clear-bottom microtiter plates 24 h before assay. Cells in culture media (DMEM/F12 containing 15 mM HEPES, L-glutamine, pyridoxine hydrochloride; 10% fetal bovine serum; 1 mg/mL G418 sulfate; antibiotic-antimycotic; pH 7.4) were loaded with proprietary dye, from the FLIPR Calcium Assay Kit (Molecular Devices), prepared in assay buffer (Hanks Balanced Salts Solution, 20 mM HEPES, 0.1% BSA, 2.5 mM probenecid, pH 7.4), and incubated for 1 h at 37° C. Calcium mobilization determinations were performed at room temperature (23° C.).

[2] = target: T2, Human UII (U-II receptor) in 6D9 human rhabdomyosarcoma cells (Homo sapiens, UniProt Q9UKP6); assay: Human UII Calcium Mobilization Assay; type: cell-based; details: 6D9 human rhabdomyosarcoma cells, FLIPR TETRA, average; read-out: Human UII Ca+ Mobilization Average IC50
T2 construct: 6D9: isolated by dilution subcloning of RMS13 cells, ATCC® Number: CRL-2061; host or cells: 6D9 human rhabdomyosarcoma cells (subclone of RMS13)
T2 sequence (Q9UKP6 1-389): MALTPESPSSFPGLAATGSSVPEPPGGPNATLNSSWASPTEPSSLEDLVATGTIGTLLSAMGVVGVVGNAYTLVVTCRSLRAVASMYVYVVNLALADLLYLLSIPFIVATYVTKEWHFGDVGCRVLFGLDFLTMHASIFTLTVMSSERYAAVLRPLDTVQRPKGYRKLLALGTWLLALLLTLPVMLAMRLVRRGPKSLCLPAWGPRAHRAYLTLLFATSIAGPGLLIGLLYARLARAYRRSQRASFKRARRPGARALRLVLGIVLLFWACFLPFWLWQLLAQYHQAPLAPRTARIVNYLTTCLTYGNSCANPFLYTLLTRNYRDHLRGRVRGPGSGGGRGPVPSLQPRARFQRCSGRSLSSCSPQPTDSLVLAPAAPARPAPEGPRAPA
Protocol: 25 μL of dye solution was added to the wells such that the final liquid volume before agonist/antagonist treatment was 50 μL for all assays. The cell plates were incubated at 37° C. for 45 minutes and the fluorescence intensity was measured on a Fluorometric Imaging Plate Reader (FLIPR^TETRA, Molecular Devices, Sunnyvale, Calif.).
Antagonist and agonist U-II were added at room temperature on the FLIPR^TETRA, and the fluorescence intensity before and after addition was measured over a period of 4 minutes. The dye incubation time and temperature as well as instrument setting was adjusted so the fluorescence intensity could be compared between plates on the same day. EC50 and IC50 were analyzed using GraphPad Prism 4 software (GraphPad Software Inc., San Diego, Calif.).
For assays, U-II agonist, U-II antagonist and urantide were diluted with HBSS/HEPES containing 0.01% FBS.
Test compounds were dissolved in DMSO at 10 mM concentration. The serial dilutions were carried out in HBSS/HEPES. The highest final DMSO concentration was at 0.1%.

[3] = target: T3, UT receptors in HSMM (Human Skeletal Muscle Myoblasts) (Homo sapiens, UniProt Q9UKP6); assay: Human Radioligand Binding Assay ((^125I)-U-II binding to intact HSMM)
T3 sequence (Q9UKP6 1-389): T2 sequence (Q9UKP6 1-389)

SMILES | IC50 [1] | IC50 [2] | Ki [3]
COc1ccc([C@@H](CCCSc2nnnn2C)N2Cc3c(cccc3N3CCNCC3)C2=O)cc1OC [Cpd 24, 2-[(1R)-1-(3,4-dimethoxy-phenyl)-4-(1-methyl-1H-tetrazol-5-ylsulfanyl)-butyl]-4-piperazin-1-yl-2,3-dihydro-isoindol-1-one] | 165 nM | 1550 nM | –
COc1ccc([C@@H](CCCN(C)S(=O)(=O)c2cccs2)N2Cc3c(cccc3N3CCN(C)CC3)C2=O)cc1OC [Cpd 26, thiophene-2-sulfonic acid {(4R)-4-(3,4-dimethoxy-phenyl)-4-[4-(4-methyl-piperazin-1-yl)-1-oxo-1,3-dihydro-isoindol-2-yl]-butyl}-methyl-amide] | 16 nM | 337 nM | –
CCN1CCN(c2cccc3c2CN([C@H](CCCOCc2cccc(F)c2)c2ccc(OC)c(OC)c2)C3=O)CC1 [Cpd 52, 2-[(1R)-1-(3,4-dimethoxy-phenyl)-4-(3-fluoro-benzyloxy)-butyl]-4-(4-ethyl-piperazin-1-yl)-2,3-dihydro-isoindol-1-one] | 3130 nM | > 10000 nM | –
CCN1CCN(c2cccc3c2CN([C@H](CCCOCc2cccc(C)c2)c2ccc(OC)c(OC)c2)C3=O)CC1 [Cpd 55, 2-[(1R)-1-(3,4-dimethoxy-phenyl)-4-(3-methyl-benzyloxy)-butyl]-4-(4-ethyl-piperazin-1-yl)-2,3-dihydro-isoindol-1-one] | 2150 nM | > 10000 nM | –
CCN1CCN(c2cccc3c2CN([C@H](CCCN(C)S(=O)(=O)c2cccs2)c2ccc(OC)c(OC)c2)C3=O)CC1 [Cpd 62, thiophene-2-sulfonic acid {(4R)-4-(3,4-dimethoxy-phenyl)-4-[4-(4-ethyl-piperazin-1-yl)-1-oxo-1,3-dihydro-isoindol-2-yl]-butyl}-methyl-amide] | 7 nM | 88 nM | –
CCN1CCN(c2cccc3c2CN([C@H](CCc2ccc4c(n2)NCCC4)c2ccc(OC)c(OC)c2)C3=O)CC1 [Cpd 86, 2-[(1R)-1-(3,4-dimethoxy-phenyl)-3-(5,6,7,8-tetrahydro-[1,8]naphthyridin-2-yl)-propyl]-4-(4-ethyl-piperazin-1-yl)-2,3-dihydro-isoindol-1-one] | < 1000 nM | – | 386 nM

Continued by falling IC50 [1], values first:

IC50 [1] | IC50 [2] | Ki [3] | SMILES
260 nM | – | > 300 nM | CCN1CCN(c2cccc3c2CN([C@H](CCCNc2ccc4ccccc4n2)c2ccc(OC)c(OC)c2)C3=O)CC1 [Cpd 89, 2-[(1R)-1-(3,4-dimethoxy-phenyl)-4-(quinolin-2-ylamino)-butyl]-4-(4-ethyl-piperazin-1-yl)-2,3-dihydro-isoindol-1-one]
32 nM | 695 nM | 50 nM | CCN1CCC(c2cccc3c2CN([C@H](CCCN(C)S(=O)(=O)c2cccs2)c2ccc(OC)c(OC)c2)C3=O)CC1 [Cpd 2, thiophene-2-sulfonic acid {(4R)-4-(3,4-dimethoxy-phenyl)-4-[4-(1-ethyl-piperidin-4-yl)-1-oxo-1,3-dihydro-isoindol-2-yl]-butyl}-methyl-amide]
7 nM | 204 nM | 55 nM | CCN1CCN(c2cccc3c2CN([C@H](CCCN(C)S(=O)(=O)N(C)C)c2ccc(OC)c(OC)c2)C3=O)CC1 [Cpd 1, dimethylaminosulfonic acid {(4R)-4-(3,4-dimethoxy-phenyl)-4-[4-(4-ethyl-piperazin-1-yl)-1-oxo-1,3-dihydro-isoindol-2-yl]-butyl}-methyl-amide]
6 nM | – | 37 nM | CCN1CCN(c2cccc3c2CN([C@H](CCCc2ccccc2)c2ccc(OC)c(OC)c2)C3=O)CC1 [Cpd 87, 2-[(1R)-1-(3,4-dimethoxy-phenyl)-4-phenyl-butyl]-4-(4-ethyl-piperazin-1-yl)-2,3-dihydro-isoindol-1-one]
6 nM | – | 10 nM | CCN1CCN(c2cccc3c2CN([C@H](CCCN(Cc2ccc(F)cc2)C(C)=O)c2ccc(OC)c(OC)c2)C3=O)CC1 [Cpd 88, N-{(4R)-4-(3,4-dimethoxy-phenyl)-4-[4-(4-ethyl-piperazin-1-yl)-1-oxo-1,3-dihydro-isoindol-2-yl]-butyl}-N-(4-fluoro-benzyl)-acetamide]
